Results as given in patent publication US20210254056A1, “IDENTIFICATION AND TARGETED MODULATION OF GENE SIGNALING NETWORKS” (CAMP4 THERAPEUTICS CORPORATION, priority 2017, published 2021).

Tested on: hepatocytes
Test: RNA-seq of hepatocytes treated with Phase III failure compounds
Description: RNA-seq was performed to determine the effects of the compounds on hepatocytes.
Significance was determined by the criteria of FPKM≥0.5, a log 2(fold-change)≥1, and a […].

CCOC(=O)N1c2ccc(C(F)(F)F)cc2[C@@H](N(Cc2cc(C(F)(F)F)cc(C(F)(F)F)c2)C(=O)OC)C[C@H]1CC [Torcetrapib]
RNA-seq results, CYP2B6 expression: 0.36
RNA-seq results, CYP2C19 expression: 0.61
RNA-seq results, CYP2D6 expression: −0.16
RNA-seq results, CYP3A4 expression: 1.87
RNA-seq results, CYP7B1 expression: 0.26
RNA-seq results, CYP39A1 expression: 0.03
RNA-seq results: CYP2B6 expression: 0.09
RNA-seq results: CYP2C19 expression: −0.14
RNA-seq results: CYP2D6 expression: 0.24
RNA-seq results: CYP3A4 expression: 0.49
RNA-seq results: CYP7B1 expression: −0.44
RNA-seq results: CYP39A1 expression: 0
significant modulation of expression of disease genes (RNA-seq, q≤0.05, hepatocytes, genes in the value or listed in the block): significantly (q≤0.05) modulate expression of the following genes: ACTG2, CYP3A4, ID1, KMT2D, and UTRN
RNA-seq results: A1BG expression (gene A1BG, hepatocytes): −0.38
RNA-seq results: AGTR1 expression (gene AGTR1, hepatocytes): −0.45
RNA-seq results: AGXT expression (gene AGXT, hepatocytes): −0.25
RNA-seq results: AHI1 expression (gene AHI1, hepatocytes): 0.19
RNA-seq results: AMPD3 expression (gene AMPD3, hepatocytes): 0.28
RNA-seq results: AMT expression (gene AMT, hepatocytes): −0.11
RNA-seq results: ANGPTL3 expression (gene ANGPTL3, hepatocytes): −0.46
RNA-seq results: ANKS4B expression (gene ANKS4B, hepatocytes): −0.02
RNA-seq results: ANKS6 expression (gene ANKS6, hepatocytes): 0.19
RNA-seq results: ANPEP expression (gene ANPEP, hepatocytes): −0.19
RNA-seq results: AOC2 expression (gene AOC2, hepatocytes): 0.53
RNA-seq results: APOA2 expression (gene APOA2, hepatocytes): −0.76
RNA-seq results: APOA5 expression (gene APOA5, hepatocytes): −0.36
RNA-seq results: APOB expression (gene APOB, hepatocytes): 0.90
RNA-seq results: COG5 expression (gene COG5, hepatocytes): 0.24
RNA-seq results: COG6 expression (gene COG6, hepatocytes): 0.29
RNA-seq results: COL1A1 expression (gene COL1A1, hepatocytes): −0.43
RNA-seq results: COX6A1 expression (gene COX6A1, hepatocytes): 0.62
RNA-seq results: CP expression (gene CP, hepatocytes): −0.27
RNA-seq results: CPS1 expression (gene CPS1, hepatocytes): −0.75
RNA-seq results: CPT1A expression (gene CPT1A, hepatocytes): −0.4
RNA-seq results: CPT2 expression (gene CPT2, hepatocytes): −0.1
RNA-seq results: CROT expression (gene CROT, hepatocytes): −0.33
RNA-seq results: CSPP1 expression (gene CSPP1, hepatocytes): 0.17
RNA-seq results: CTC1 expression (gene CTC1, hepatocytes): −0.2
RNA-seq results: CTDSP2 expression (gene CTDSP2, hepatocytes): 0.03
RNA-seq results: CTH expression (gene CTH, hepatocytes): 2.52
RNA-seq results: CTNS expression (gene CTNS, hepatocytes): −0.12
RNA-seq results: CTSF expression (gene CTSF, hepatocytes): 0.3
RNA-seq results: CTSK expression (gene CTSK, hepatocytes): 0
RNA-seq results: CYB5A expression (gene CYB5A, hepatocytes): 0.21
RNA-seq results: CYB5R3 expression (gene CYB5R3, hepatocytes): 0.07
RNA-seq results: CYP27A1 expression (gene CYP27A1, hepatocytes): 0.12
RNA-seq results: DAO expression (gene DAO, hepatocytes): −0.72
RNA-seq results: DBT expression (gene DBT, hepatocytes): 0
RNA-seq results: DCDC2 expression (gene DCDC2, hepatocytes): −0.51
RNA-seq results: DCXR expression (gene DCXR, hepatocytes): 0.37
RNA-seq results: FABP1 expression (gene FABP1, hepatocytes): 0.58
RNA-seq results: FADD expression (gene FADD, hepatocytes): 0.43
RNA-seq results: FAM111A expression (gene FAM111A, hepatocytes): −0.26
RNA-seq results: FAM111B expression (gene FAM111B, hepatocytes): −1.74
RNA-seq results: FAN1 expression (gene FAN1, hepatocytes): 0.14
RNA-seq results: FARS2 expression (gene FARS2, hepatocytes): 0.06
RNA-seq results: FASLG expression (gene FASLG, hepatocytes): −1.19
RNA-seq results: FGA expression (gene FGA, hepatocytes): −0.25
RNA-seq results: FGD1 expression (gene FGD1, hepatocytes): −0.63
RNA-seq results: FGFR2 expression (gene FGFR2, hepatocytes): 0.15
RNA-seq results: FIG4 expression (gene FIG4, hepatocytes): 0
RNA-seq results: FIS1 expression (gene FIS1, hepatocytes): 0.52
RNA-seq results: FTCD expression (gene FTCD, hepatocytes): −0.05
RNA-seq results: FTH1 expression (gene FTH1, hepatocytes): 0.6
RNA-seq results: FUCA1 expression (gene FUCA1, hepatocytes): 0.01
RNA-seq results: FXN expression (gene FXN, hepatocytes): −0.17
RNA-seq results: G6PC3 expression (gene G6PC3, hepatocytes): −0.07
RNA-seq results: G6PC expression (gene G6PC, hepatocytes): −0.17
RNA-seq results: G6PD expression (gene G6PD, hepatocytes): −0.05
RNA-seq results: GALK1 expression (gene GALK1, hepatocytes): 0.4
RNA-seq results: GALK2 expression (gene GALK2, hepatocytes): 0.22
RNA-seq results: GALT expression (gene GALT, hepatocytes): −0.21
RNA-seq results: GATA6 expression (gene GATA6, hepatocytes): 0.17
RNA-seq results: GATM expression (gene GATM, hepatocytes): −0.33
RNA-seq results: GBA expression (gene GBA, hepatocytes): −0.07
RNA-seq results: GBE1 expression (gene GBE1, hepatocytes): 0.39
RNA-seq results: GCH1 expression (gene GCH1, hepatocytes): 0.23
RNA-seq results: GCKR expression (gene GCKR, hepatocytes): −0.19
RNA-seq results: GCLC expression (gene GCLC, hepatocytes): 0.13
RNA-seq results: GOSH expression (gene GOSH, hepatocytes): 0.22
RNA-seq results: RRM2B (gene RRM2B, hepatocytes): 0.48
RNA-seq results: RSAD1 (gene RSAD1, hepatocytes): −0.11
RNA-seq results: SAMHD1 (gene SAMHD1, hepatocytes): 0.25
RNA-seq results: SC5D (gene SC5D, hepatocytes): −0.01
RNA-seq results: SCARB1 (gene SCARB1, hepatocytes): −0.17
RNA-seq results: SCN9A (gene SCN9A, hepatocytes): 0.25
RNA-seq results: SDCCAG8 (gene SDCCAG8, hepatocytes): −0.03
RNA-seq results: SEPN1 (gene SEPN1, hepatocytes): 0.28
RNA-seq results: SERAC1 (gene SERAC1, hepatocytes): 0.29
RNA-seq results: SERPINA1 (gene SERPINA1, hepatocytes): −0.19
RNA-seq results: SERPING1 (gene SERPING1, hepatocytes): −0.11
RNA-seq results: SERPINI1 (gene SERPINI1, hepatocytes): −0.19
RNA-seq results: SETBP1 (gene SETBP1, hepatocytes): −0.14
RNA-seq results: SFXN4 (gene SFXN4, hepatocytes): −0.46
RNA-seq results: SLC10A1 (gene SLC10A1, hepatocytes): −0.03
RNA-seq results: SLC10A3 (gene SLC10A3, hepatocytes): 0.11
RNA-seq results: SLC10A5 (gene SLC10A5, hepatocytes): 0.18
RNA-seq results: SLC10A7 (gene SLC10A7, hepatocytes): 0.23
RNA-seq results: SLC11A2 (gene SLC11A2, hepatocytes): 0.32
RNA-seq results: SLC19A1 (gene SLC19A1, hepatocytes): −0.21
RNA-seq results: SLC19A2 (gene SLC19A2, hepatocytes): 0.32
RNA-seq results: SLC19A3 (gene SLC19A3, hepatocytes): −0.31
RNA-seq results: SLC22A1 (gene SLC22A1, hepatocytes): −0.22
RNA-seq results: SLC22A5 (gene SLC22A5, hepatocytes): −0.06
RNA-seq results: SLC25A1 (gene SLC25A1, hepatocytes): −0.33
RNA-seq results: SLC25A10 (gene SLC25A10, hepatocytes): −0.31
RNA-seq results: SLC25A12 (gene SLC25A12, hepatocytes): −0.27
RNA-seq results: SLC25A13 (gene SLC25A13, hepatocytes): 0.25
RNA-seq results: SLC25A15 (gene SLC25A15, hepatocytes): −0.09
RNA-seq results: SLC25A19 (gene SLC25A19, hepatocytes): −0.43
RNA-seq results: SLC25A20 (gene SLC25A20, hepatocytes): −0.35
RNA-seq results: SLC25A29 (gene SLC25A29, hepatocytes): −0.13
RNA-seq results: SLC25A32 (gene SLC25A32, hepatocytes): −0.10
